Key:
[1] = test system: HuTu 80 human duodenal adenocarcinoma cells; assay: MTT cytotoxicity assay, HuTu 80; type: cell-based; conditions: for IC50: Homo sapiens, HuTu80, MTT, tested at 1–200 µM, three independent experiments; for SI (selectivity index) HuTu 80: HuTu 80 versus normal WI38 cells
[2] = test system: M-HeLa human cervix carcinoma cells; assay: MTT cytotoxicity assay, M-HeLa; type: cell-based; conditions: for IC50: Homo sapiens, M-HeLa, tested at 1–200 µM, three independent experiments; for IC50 / cytotoxicity against M-HeLa (in words): MTT; for SI (selectivity index) M-HeLa: M-HeLa versus normal WI38 cells
[3] = test system: WI38 human fibroblast cell line; assay: MTT cytotoxicity assay, normal WI38 cells; type: cell-based; conditions: WI-38, tested at 1–200 µM, three independent experiments
[4] = test system: RPMI 1788 human healthy donor peripheral blood leukocytes; assay: MTT cytotoxicity assay, normal RPMI 1788 cells; type: cell-based; conditions: tested at 1–200 µM, three independent experiments, read-out: IC50 RPMI 1788 (normal cell line)
lymphatic leukemia P388 = assay: Antitumor activity, syngeneic lymphatic leukemia P388 in BDF1 mice; type: in vivo, mouse; conditions: for ILS / MST ± SD: i.p. days 1, 5, 9
Experimental: At the next stage, we evaluated them in vivo using syngeneic mouse leukosis P388, which plays an important role in the screening of potential antitumor agents. The antitumor effect of the synthesized compounds was evaluated according to the increase in the average lifespan (ILS, %) of tumor-bearing animals. Due to the fact that physiologically relevant solvent, such as water or physiological solution [49], can be used as a solvent for parenteral administration of substances, we chose only water-soluble compounds 4o–r for the in vivo study.
As model tumors for the determination of antitumor activity of phosphorus-containing derivatives of pyrrolidine, the strain of lymphatic leukemia P388 was chosen. Lymphatic leukemia P388 was transplanted into hybrid mice of the BDF1 line intraperitoneally in accordance with the standard procedure. The inoculum contained 10^6 tumor cells in isotonic solution of NaCl. […] In each experiment, the control group was represented by the cohort of animals with tumors not treated with the compounds. Each group consisted of six mice. The animals were inspected daily over at least 60 days. The effectiveness of therapy was evaluated by the number of surviving animals, as well as by the increase in the average lifespan (ILS%), which was evaluated as the percentage of the mean survival time (MST) of the treated group (t) as compared to the control group (c): […].

[5] = test system: HL-60 human promyelocytic leukemia cells; assay: MTT cytotoxicity assay, HL-60; type: cell-based; conditions: for IC50: Homo sapiens, HL-60, MTT, tested at 1–200 µM, three independent experiments
[6] = dose 12 (table prints no unit; b71 mg/kg)
[7] = dose 17 (table prints no unit; b71 mg/kg)
[8] = dose 26 (table prints no unit; b71 mg/kg)
[9] = dose 37 (table prints no unit; b71 mg/kg)
[10] = dose 55 (table prints no unit; b71 mg/kg)

Row | Structure (SMILES) | IC50 [1] [µM] | SI (selectivity index) HuTu 80 [1] | IC50 [2] [µM] | SI (selectivity index) M-HeLa [2] | IC50 [3] [µM] | other results
1 | O=c1[nH]cc(F)c(=O)[nH]1 [5-Fluorouracil, reference compound] | 65.2 ± 5.5 | 1 | 75.6 ± 6.1 | - ((-)—no selectivity) | 62 ± 4.8 | –
2 | O=C1CCN(c2ccccc2)N1C1CCCN1S(=O)(=O)CCN1CCCCC1 (stereo not drawn) [Compound 4b, 1-Phenyl-2-(1-((2-(piperidin-1-yl)ethyl)sulfonyl)pyrrolidin-2-yl)pyrazolidin-3-one] | > 100 | - ((-)—no selectivity) | 87 ± 6.8 | 1 | 88.3 ± 7.1 | –
3 | Nc1ncnc2c1ncn2CCS(=O)(=O)N1CCCC1N1C(=O)CCN1c1ccccc1 (stereo not drawn) [Compound 4c, 2-(1-((2-(6-Amino-9H-purin-9-yl)ethyl)sulfonyl)pyrrolidin-2-yl)-1-phenylpyrazolidin-3-one] | > 100 | - ((-)—no selectivity) | > 100 | - ((-)—no selectivity) | 100 | –
4 | O=C(O)c1cn(C2CC2)c2cc(N3CCN(CCS(=O)(=O)N4CCCC4N4C(=O)CCN4c4ccccc4)CC3)c(F)cc2c1=O (stereo not drawn) [Compound 4l, 1-Cyclopropyl-6-fluoro-4-oxo-7-(4-(2-((2-(5-oxo-2-phenylpyrazolidin-1-yl)pyrrolidin-1-yl)sulfonyl)ethyl)piperazin-1-yl)-1,4-dihydroquinoline-3-carboxylic acid] | > 100 | – | 85.4 ± 7.5 | 1.8 | 154 ± 12 | cytotoxicity against M-HeLa (in words) [2]: moderate cytotoxicity
5 | Cc1c(C2CCCN2S(=O)(=O)CCNCC(=O)O)c(=O)n(-c2ccccc2)n1C (stereo not drawn) [Compound 4m, (2-((2-(1,5-Dimethyl-3-oxo-2-phenyl-2,3-dihydro-1H-pyrazol-4-yl)pyrrolidin-1-yl)sulfonyl)ethyl)glycine] | 87 ± 7 | >1.1 | > 100 | – | > 100 | –
6 | CCN(CC)CCS(=O)(=O)N1CCCC1P(=O)(c1ccccc1)c1ccccc1.Cl (stereo not drawn) [Compound 4o, 2-((2-(Diphenylphosphoryl)pyrrolidin-1-yl)sulfonyl)-N,N-diethylethanaminium chloride] | > 100 | - ((-)—no selectivity) | 56.7 ± 4.8 | 1.5 | 84.3 ± 7.2 | IC50 [4]: > 100 µM; cytotoxicity against M-HeLa (in words) [2]: moderate cytotoxicity; ILS (lymphatic leukemia P388; [6]): 7%; MST ± SD (lymphatic leukemia P388; [6]): 10.7 ± 1.0 days; ILS (lymphatic leukemia P388; [7]): −5%; MST ± SD (lymphatic leukemia P388; [7]): 9.5 ± 0.8 days; ILS (lymphatic leukemia P388; [8]): 17%; MST ± SD (lymphatic leukemia P388; [8]): 11.7 ± 1.9 days; ILS (lymphatic leukemia P388; [9]): 7%; MST ± SD (lymphatic leukemia P388; [9]): 10.7 ± 0.9 days; ILS (lymphatic leukemia P388; [10]): 5%; MST ± SD (lymphatic leukemia P388; [10]): 10.5 ± 1.2 days; antileukemia / antitumor effect (in words) (lymphatic leukemia P388; doses under study, i.p.): did not display antitumor effect; IC50 [5]: > 100 µM
7 | Cl.O=P(c1ccccc1)(c1ccccc1)C1CCCN1S(=O)(=O)CCN1CCOCC1 (stereo not drawn) [Compound 4s, 4-(2-((2-(Diphenylphosphoryl)pyrrolidin-1-yl)sulfonyl)ethyl)morpholin-4-ium chloride] | > 100 | - ((-)—no selectivity) | 78.4 ± 6.6 | 1.2 | 91.8 ± 8.4 | IC50 [4]: > 100 µM; IC50 [5]: > 100 µM
8 | Nc1ncnc2c1ncn2CCS(=O)(=O)N1CCCC1P(=O)(c1ccccc1)c1ccccc1 (stereo not drawn) [Compound 4u, (1-((2-(6-Amino-9H-purin-9-yl)ethyl)sulfonyl)pyrrolidin-2-yl)diphenylphosphine oxide] | > 100 | – | > 100 | – | > 100 | –
9 | O=C(O)CNCCS(=O)(=O)N1CCCC1P(=O)(c1ccccc1)c1ccccc1 (stereo not drawn) [Compound 4v, 2-((2-((2-(Diphenylphosphoryl)pyrrolidin-1-yl)sulfonyl)ethyl)amino)acetic acid] | > 100 | – | 96.2 ± 8.4 | 2.2 | 211 ± 17 | –
10 | O=C(O)[C@@H](NCCS(=O)(=O)N1CCCC1P(=O)(c1ccccc1)c1ccccc1)c1c[nH]c2ccccc12 (stereo partly drawn) [Compound 4x, (2S)-2-((2-((2-(Diphenylphosphoryl)pyrrolidin-1-yl)sulfonyl)ethyl)amino)-2-(1H-indol-3-yl)acetic acid] | > 100 | – | 98.2 ± 8.3 | 1.3 | 128 ± 10 | –
11 | O=P(c1ccccc1)(c1ccccc1)C1CCCN1S(=O)(=O)CCNCCS(=O)(=O)O (stereo not drawn) [Compound 4y, 2-((2-((2-(Diphenylphosphoryl)pyrrolidin-1-yl)sulfonyl)ethyl)amino)ethane-1-sulfonic acid] | 100 ± 9.2 | 1.2 | 62.5 ± 5.3 | 1.9 | 120 ± 9.3 | cytotoxicity against M-HeLa (in words) [2]: moderate cytotoxicity
12 | O=C(O)c1cn(C2CC2)c2cc(N3CCN(CCS(=O)(=O)N4CCCC4P(=O)(c4ccccc4)c4ccccc4)CC3)c(F)cc2c1=O (stereo not drawn) [Compound 4z, 1-Cyclopropyl-7-(4-(2-((2-(diphenylphosphoryl)pyrrolidin-1-yl)sulfonyl)ethyl)piperazin-1-yl)-6-fluoro-4-oxo-1,4-dihydroquinoline-3-carboxylic acid] | 64.6 ± 5.1 | 1.9 | 85.9 ± 8.2 | 1.4 | 123 ± 9.6 | –
13 | COc1cccc2c1C(=O)c1c(O)c3c(c(O)c1C2=O)C[C@@](O)(C(=O)CO)C[C@@H]3O[C@H]1C[C@H](N)[C@H](O)[C@H](C)O1 [Doxorubicin, reference compound] | – | – | – | – | – | IC50 [4]: 3.3 ± 6.6 µM; SI (selectivity index) HL-60 ([5]; HL-60 versus normal RPMI 1788 leukocytes): 1.1; IC50 [5]: 3 ± 4.7 µM
